{"source": "patent US20150203526A1", "about": "“NOVEL 19-NOR-STEROIDS AND THEIR USE FOR TREATING PROGESTERONE- DEPENDENT CONDITIONS” (REPROS THERAPEUTICS INC., priority 2010, published 2015)", "key": {"liver aminotransferases": {"test_system": "liver aminotransferases", "experiment": "Clinical trials of daily oral CDB-4124 (Proellex): liver toxicity / liver enzymes", "assay_type": "in vivo, human", "experimental": "(§1) The maximum concentrations of CDB-4124 and its mono-demethylated metabolite (CDB-4453) for the 12.5 mg dose were 25% of the 50 mg dose. All liver toxicities resolved in those women that returned for safety follow-ups, including those subjects that developed liver-associated serious adverse effects (SAEs).\nTo date, over 600 patients, including women with confirmed cases of endometriosis or uterine fibroids, have participated in double blind and open label clinical trials in which patients were administered daily oral capsules containing doses of 12.5 mg, 25 mg or 50 mg CDB-4124 (Proellex) for over one month. Of these patients, about 500 received Proellex and about 130 received a placebo. Of the patients receiving Proellex, about 190 received a dose of 50 mg CDB-4124 per day, about 260 received a dose of 25 mg CDB-4124 per day and about 55 received a dose of 12.5 mg per day.\nLiver enzymes were frequently monitored in participating subjects. The liver enzyme level at which the clinical trials would be discontinued was set at an increase in liver aminotransferases greater than, or equal to three times the Upper Limit of Normal (≧3×ULN).\nOf the nine subjects with a confirmed increase in liver enzymes≧3×ULN, seven were severe enough elevations to be reported to the FDA as SAEs. One of these seven subjects had been receiving a dose of 25 mg CDB-4124 per day; the remaining six subjects had been receiving a dose of 50 mg CDB-4124 per day. Liver enzymes≧3×ULN persisted in five of the nine subjects with a confirmed increase in liver enzymes≧3×ULN. These five subjects had previously been dosed with the 50 mg dose. One of these subjects is receiving oral medication for treatment of their liver condition. Clinical trials involving CDB-4124 at all doses were voluntarily suspended as a result of these SAEs and were subsequently placed on clinical hold by the United States Food and Drug Administration for safety reasons."}, "[1]": {"experiment": "Pharmacokinetic studies on clinical trial subjects after oral CDB-4124", "assay_type": "in vivo, human", "experimental": "as §1\n(§2) Pharmacokinetic studies performed on participating subjects detected a high Cmax and a Tmax at 1-2 hours following administration. […] Metabolism of CDB-4124 by the liver provides the opportunity for liver damage and greatly reduces the concentration of the antiprogestin before it reaches the systemic circulation. Thus, alternative routes of administration of antiprogestins that avoid first pass metabolism such as, without limitation, intravenous, intramuscular, and sublingual, should allow antiprogestins to be absorbed directly into the systemic circulation and thereby provide a method for treating progestone-dependent conditions while avoiding liver toxicity. Administration routes which avoid first pass metabolism may also require less drug per dose to achieve the same therapeutic benefit relative to oral administration."}, "[2]": {"test_system": "progesterone-induced endometrial proliferation", "experiment": "Anti-Clauberg study, subcutaneous vs oral", "assay_type": "in vivo, rabbits", "from_the_text": "FIG. 3 illustrates a comparison of the inhibition of progesterone-induced endometrial proliferation in estradiol-primed immature rabbits following subcutaneous injection and oral administration of CDB-4124\nTo determine whether the low circulating levels of CDB-4124 when administered locally could have any impact predictive of efficacy, an anti-Clauberg study was run in which immature estradiol-primed rabbits were coadministered progesterone and various doses of CDB-4124 by either subcutaneous or oral administration. At least 3 different highly trained individuals evaluated the rabbit uterus for glandular growth, for complexity and overall progesterone-induced “development”. The inhibition (by percentage) of progesterone-induced endometrial proliferation at each dose was assayed. […] However, maximal inhibition required a ˜8-fold increase in dosage when administered orally (i.e. 8 mg/kg). Importantly 8 mg/kg corresponds closely to the 50 mg/day dose of CDB-4124 administered to the female subjects described in Example 3."}, "animal hepatocytes": {"test_system": "animal hepatocytes", "experiment": "Metabolism in primary cultures of animal hepatocytes", "assay_type": "in vitro ADME", "experimental": "as §2"}, "[3]": {"experiment": "Cmax after vaginal administration extrapolated from beagles to humans", "assay_type": "in vivo", "conditions": "for Predicted Cmax for vaginal administration as percentage of the same dose administered orally: humans", "experimental": "FIG. 2 illustrates the actual Cmax observed for Proellex (CDB-4124) and its monodemethylated metabolite CDB-4453, following oral administration of CDB-4124 at 12.5 mg, 25 mg and 50 mg doses as well as the projected Cmax for 3 mg, 6 mg and 9 mg doses. FIG. 2 also illustrates the actual Cmax observed for Proellex (CDB-4124) and its monodemethylated metabolite CDB-4453, following vaginal administration of CDB-4124 at 12.5 mg, 25 mg and 50 mg doses.\nThe maximum circulating concentrations (Cmax) of CDB-4124 obtained following vaginal administration to beagles were extrapolated to humans for the 12.5 mg, 25 mg and 50 mg doses actually administered during the Phase III clinical studies.\nBecause a high concentration of the drug in the systemic circulation (and associated first pass metabolism of the drug) is not reached by local administration, avoidance of the severe liver toxicity observed in a small percentage of subjects following oral administration of CDB-4124 in previous Phase III clinical studies at doses of 25 and 50 mg is a surprising advantage of administering the drug locally. Similar advantages should inure to local administration of other antiprogestins."}, "[4]": {"test_system": "progesterone-induced endometrial proliferation", "experiment": "Anti-Clauberg study, vaginal vs oral (McPhail index)", "assay_type": "in vivo, rabbits", "experimental": "FIG. 4 compares the antiprogestational effects of three doses of CDB-4124 when delivered orally versus when delivered to the vaginal mucosa of estradiol-primed immature rabbits in the presence of progesterone, as measured by a decrease in the McPhail index. Treatment with progesterone alone (vehicle control) provided a baseline measurement of progestational activity.\nAnother anti-Clauberg study was run in which immature estradiol-primed rabbits were administered progesterone alone (vehicle control) or were co-administered progesterone and three doses of CDB-4124 by either vaginal or oral administration. The inhibition of progesterone-induced endometrial proliferation at each dose was assayed. FIG. 3 illustrates the decrease in the McPhail index following increasing doses of CDB-4124 administered by either route. Maximal inhibition (i.e. a decrease in the McPhail index to 1.5) occurred at 0.2 mg/kg CDB-4124 when administered vaginally, compared to 0.8 mg/kg when administered orally."}, "human hepatocytes": {"test_system": "human hepatocytes", "experiment": "Metabolism in primary cultures of human hepatocytes", "assay_type": "in vitro ADME", "experimental": "as §2"}}}
{"compound": "COCC(=O)[C@@]1(OC(C)=O)CC[C@H]2[C@@H]3CCC4=CC(=O)CCC4=C3[C@@H](c3ccc(N(C)C)cc3)C[C@@]21C", "note": "[CDB-4124]", "values": [{"measurement": "Subjects with elevations reported as SAEs", "setting": "liver aminotransferases; 25 mg CDB-4124 per day", "result": "One"}, {"measurement": "Subjects with elevations reported as SAEs", "setting": "liver aminotransferases; 50 mg CDB-4124 per day", "result": "six"}, {"measurement": "Subjects with elevations severe enough to be reported as SAEs", "setting": "liver aminotransferases; all doses", "result": "seven"}, {"measurement": "Subjects found to exhibit an increase in liver enzymes ≧3×ULN", "setting": "liver aminotransferases; all doses, before repeat test", "result": "thirteen"}, {"measurement": "Subjects with confirmed increase in liver enzymes ≧3×ULN", "setting": "liver aminotransferases; all doses, confirmed by repeat test in 48 hours", "result": "nine"}, {"measurement": "Adverse liver toxicity signals", "setting": "liver aminotransferases; oral, 12.5 mg", "result": "no adverse liver toxicity signals different from placebo"}, {"measurement": "Liver toxicity effects at 25 mg/day compared with 50 mg/day", "setting": "liver aminotransferases; oral, 25 mg/day vs 50 mg/day", "result": "significantly lower in frequency and intensity"}, {"measurement": "Women exhibiting severe liver toxicity", "setting": "liver aminotransferases; oral, 50 mg/day", "result": "3-4%"}, {"measurement": "Subjects in whom liver enzymes ≧3×ULN persisted", "setting": "liver aminotransferases; previously dosed with the 50 mg dose", "result": "five"}, {"measurement": "Cmax", "setting": "[1]; following oral administration", "result": "high"}, {"measurement": "Monodemethylated metabolite detected (first pass metabolism)", "setting": "[1]; following oral administration", "result": "Large quantities"}, {"measurement": "Tmax", "setting": "[1]; following oral administration", "result": "1 to 2", "unit": "h"}, {"measurement": "Maximum concentration for the 12.5 mg dose relative to the 50 mg dose", "setting": "[1]; oral CDB-4124, 12.5 mg vs 50 mg", "result": 25, "unit": "%"}, {"measurement": "Dose required for maximal inhibition", "setting": "[2]; oral", "result": 8, "unit": "mg/kg"}, {"measurement": "Increase in dosage required for maximal inhibition, oral vs subcutaneous", "setting": "[2]; oral vs subcutaneous", "result": "~8", "unit": "fold"}, {"measurement": "Dose at which maximal inhibition was observed", "setting": "[2]; subcutaneous", "result": "less than 1 mg/kg"}, {"measurement": "Production of the mono-demethylated metabolite", "setting": "animal hepatocytes", "result": "rapidly produce the mono-demethylated metabolite"}, {"measurement": "Predicted Cmax for vaginal administration as percentage of the same dose administered orally", "setting": "[3]; 12.5 mg dose", "result": "approximately 6.5%"}, {"measurement": "Cmax with 12.5 mg vaginal dose relative to 50 mg oral dose", "setting": "[3]; 12.5 mg vaginal vs 50 mg oral", "result": 2, "unit": "%"}, {"measurement": "Predicted Cmax for vaginal administration as percentage of the same dose administered orally", "setting": "[3]; 50 mg dose", "result": "approximately 2%"}, {"measurement": "McPhail index at maximal inhibition", "setting": "[4]; 0.2 mg/kg vaginal or 0.8 mg/kg oral", "result": 1.5}, {"measurement": "Dose at which maximal inhibition occurred", "setting": "[4]; oral", "result": 0.8, "unit": "mg/kg"}, {"measurement": "Dose at which maximal inhibition occurred", "setting": "[4]; vaginal", "result": 0.2, "unit": "mg/kg"}, {"measurement": "Antiprogestational activity of vaginal delivery relative to the same oral dose", "setting": "[4]; vaginal vs oral", "result": "four times the antiprogestational activity"}, {"measurement": "Production of the mono-demethylated metabolite", "setting": "human hepatocytes", "result": "rapidly produce the mono-demethylated metabolite"}]}
